Measurements as given in patent US20130142831A1, “COMPOUNDS FOR INFLAMMATION AND IMMUNE-RELATED USES” (Synta Pharmaceuticals Corp., priority 2004, published 2013).

Each molecule was assayed on IL-2 production (assay: Inhibition of IL-2 production in PHA-activated Jurkat cells). Conditions: Homo sapiens, PHA 2.5 μg/mL, 20 hours, bins given in nM.
Assay type: cell-based
Method: Jurkat cells were placed in a 96 well plate (0.5 million cells per well in 1% FBS medium) then test compounds of this invention were added at different concentrations. After 10 minutes, the cells were activated with PHA (final concentration 2.5 μg/mL) and incubated for 20 hours at 37° C. under CO2. The final volume was 200 μL. Following incubation, the cells were centrifuged and the supernatants collected and stored at −70° C. prior to assaying for IL-2 production. A commercial kit (IL-2 Eli-pair, Diaclone Research, Besancon, France) was used to detect production of IL-2, from which dose response curves were obtained. The IC50 value was calculated as the concentration at which. 50% of maximum IL-2 production after stimulation was inhibited versus a non-stimulation control.
`COc1ccc2c(c1)nc(C(F)(F)F)n2-c1ccc(NC(=O)c2c(Cl)cc(Cl)cc2Cl)cc1` [Compound 63, 2,4,6-Trichloro-N-[4-(2-trifluoromethyl-5-methoxy-benzoimidazol-1-yl)-phenyl]-benzamide] showed an IC50 of 100 to 500 nM. For `O=C(Nc1ccc(-n2c(C(F)(F)F)nc3cc(C(F)(F)F)ccc32)cc1)c1cccc(F)c1F` [Compound 64, 2,3-Difluoro-N-{4-[2,5-di-(trifluoromethyl)-benzoimidazol-1-yl]-phenyl}-benzamide], the IC50 was 100 to 500 nM. `CS(=O)(=O)c1ccc2c(c1)nc(C(F)(F)F)n2-c1ccc(NC(=O)c2cccc(F)c2F)cc1` [Compound 65, 2,3-Difluoro-N-[4-(2-trifluoromethyl-5-methanesulfonyl-benzoimidazol-1-yl)-phenyl]-benzamide] showed an IC50 of 100 to 500 nM. With `CCCCc1ccc(C(=O)Nc2ccc(-n3c(C(F)(F)F)nc4cc(OC)ccc43)cc2)cc1` [Compound 66, 4-Butyl-N-[4-(2-trifluoromethyl-5-methoxy-benzoimidazol-1-yl)-phenyl]-benzamide] the IC50 was 100 to 500 nM. `CC(C)(C)c1cnc(-c2ccc3c(c2)nc(C(F)(F)F)n3-c2ccc(NC(=O)c3ccco3)cc2)o1` [Compound 69, Furan-2-carboxylic acid (N-{4-[2-trifluoromethyl-5-(5-tert-butyl-oxazol-2-yl)-benzoimidazol-1-yl]-phenyl}) amide] was tested, and the IC50 was 100 to 500 nM. For `O=C(Nc1ccc(-c2c(C(F)(F)F)nc3ccccn23)cc1)c1cccc(F)c1F` [Compound 70, 2,3-Difluoro-N-[4-(2-trifluoromethyl-imidazo[1,2-a]pyrid-3-yl)-phenyl]-benzamide], the IC50 was 100 to 500 nM. Work on `COc1ccc2c(c1)nc(C(F)(F)F)n2-c1ccc(NC(=O)c2cc(F)c(F)c(F)c2F)cc1` [Compound 71, 2,3,4,5-Tetrafluoro-N-[4-(2-trifluoromethyl-5-methoxy-benzoimidazol-1-yl)-phenyl]-benzamide] yielded an IC50 of less than 100 nM. In the case of `COc1ccc2c(c1)nc(C(F)(F)F)n2-c1ccc(NC(=O)c2ccc(-c3ccccc3)cc2)cc1` [Compound 72, 4-Phenyl-N-[4-(2-trifluoromethyl-5-methoxy-benzoimidazol-1-yl)-phenyl]-benzamide], the IC50 was 100 to 500 nM. `COc1ccc2c(c1)nc(C(F)(F)F)n2-c1ccc(NC(=O)c2ccc(I)cc2)cc1` [Compound 73, 4-Iodo-N-[4-(2-trifluoromethyl-5-methoxy-benzoimidazol-1-yl)-phenyl]-benzamide] gave an IC50 of 100 to 500 nM. `COc1ccc2c(c1)nc(C(F)(F)F)n2-c1ccc(NC(=O)c2ccc3ccccc3c2)cc1` [Compound 74, Naphthalene-2-carboxylic acid {N-[4-(2-trifluoromethyl-5-methoxy-benzoimidazol-1-yl)-phenyl]} amide] gave an IC50 of 100 to 500 nM. Molecule `COc1ccc2c(c1)nc(C(F)(F)F)n2-c1ccc(NC(=O)c2ccc(C)cc2)cc1` [Compound 76, 4-Methyl-N-[4-(2-trifluoromethyl-5-methoxy-benzoimidazol-1-yl)-phenyl]-benzamide] has an IC50 of 100 to 500 nM. Work on `COc1ccc2c(c1)nc(C(F)(F)F)n2-c1ccc(NC(=O)c2ccc(C#N)cc2)cc1` [Compound 77, 4-Cyano-N-[4-(2-trifluoromethyl-5-methoxy-benzoimidazol-1-yl)-phenyl]-benzamide] yielded an IC50 of 100 to 500 nM. In the case of `COc1ccc2c(c1)nc(C(F)(F)F)n2-c1ccc(NC(=O)c2ccc([N+](=O)[O-])cc2)cc1` [Compound 78, 4-Nitro-N-[4-(2-trifluoromethyl-5-methoxy-benzoimidazol-1-yl)-phenyl]-benzamide], the IC50 was 100 to 500 nM. With `CCc1ccc(C(=O)Nc2ccc(-n3c(C(F)(F)F)nc4cc(OC)ccc43)cc2)cc1` [Compound 79, 4-Ethyl-N-[4-(2-trifluoromethyl-5-methoxy-benzoimidazol-1-yl)-phenyl]-benzamide] the IC50 was 100 to 500 nM. `COc1ccc2c(c1)nc(C(F)(F)F)n2-c1ccc(NC(=O)c2ccc(C(F)(F)F)cc2)cc1` [Compound 80, 4-Trifluoromethyl-N-[4-(2-trifluoromethyl-5-methoxy-benzoimidazol-1-yl)-phenyl]-benzamide] showed an IC50 of 100 to 500 nM. `COc1ccc2c(c1)nc(C(F)(F)F)n2-c1ccc(NC(=O)c2cc([N+](=O)[O-])cc([N+](=O)[O-])c2)cc1` [Compound 81, 3,5-Dinitro-N-[4-(2-trifluoromethyl-5-methoxy-benzoimidazol-1-yl)-phenyl]-benzamide] was tested, and the IC50 was 100 to 500 nM. In the case of `CCCC(=O)Nc1ccc(-n2c(C(F)(F)F)nc3cc(OC)ccc32)cc1` [Compound 82, N-[4-(2-trifluoromethyl-5-methoxy-benzoimidazol-1-yl)-phenyl]-butyramide], the IC50 was 100 to 500 nM. `COc1ccc2c(c1)nc(C(F)(F)F)n2-c1ccc(NC(=O)c2cccc3ccccc23)cc1` [Compound 83, Naphthalene-1-carboxylic acid {N-[4-(2-trifluoromethyl-5-methoxy-benzoimidazol-1-yl)-phenyl]} amide] showed an IC50 of 100 to 500 nM. With `COc1ccc2c(c1)nc(C(F)(F)F)n2-c1ccc(NC(=O)C=C(C)C)cc1` [Compound 84, 3-Methyl-N-[4-(2-trifluoromethyl-5-methoxy-benzoimidazol-1-yl)-phenyl]-but-2-enoic acid amide] the IC50 was 100 to 500 nM. For `CCCc1ccc(C(=O)Nc2ccc(-n3c(C(F)(F)F)nc4cc(OC)ccc43)cc2)cc1` [Compound 85, 4-Propyl-N-[4-(2-trifluoromethyl-5-methoxy-benzoimidazol-1-yl)-phenyl]-benzamide], the IC50 was 100 to 500 nM. Molecule `COc1ccc2c(c1)nc(C(F)(F)F)n2-c1ccc(NC(=O)c2cccs2)cc1` [Compound 86, Thiophene-2-carboxylic acid {N-[4-(2-trifluoromethyl-5-methoxy-benzoimidazol-1-yl)-phenyl]} amide] has an IC50 of 100 to 500 nM. With `CCCCC(CC)C(=O)Nc1ccc(-n2c(C(F)(F)F)nc3cc(OC)ccc32)cc1` (stereo not drawn) [Compound 87, 2-Ethyl-N-[4-(2-trifluoromethyl-5-methoxy-benzoimidazol-1-yl)-phenyl]-hexanoic acid amide] the IC50 was 100 to 500 nM. In the case of `CCCCCCC(=O)Nc1ccc(-n2c(C(F)(F)F)nc3cc(OC)ccc32)cc1` [Compound 88, N-[4-(2-trifluoromethyl-5-methoxy-benzoimidazol-1-yl)-phenyl]-heptanoic acid amide], the IC50 was 100 to 500 nM. `COc1cccc(C(=O)Nc2ccc(-n3c(C(F)(F)F)nc4cc(OC)ccc43)cc2)c1` [Compound 89, 3-Methoxy-N-[4-(2-trifluoromethyl-5-methoxy-benzoimidazol-1-yl)-phenyl]-benzamide] gave an IC50 of 100 to 500 nM. In the case of `COc1ccc2c(c1)nc(C(F)(F)F)n2-c1ccc(NC(=O)C2CC2c2ccccc2)cc1` (stereo not drawn) [Compound 90, 2-Phenyl-N-[4-(2-trifluoromethyl-5-methoxy-benzoimidazol-1-yl)-phenyl]-cyclopropanecarboxylic acid amide], the IC50 was 100 to 500 nM.

Same assay, conditions: Homo sapiens, PHA 2.5 μg/mL, 20 hours, bins given with μM limit
`O=S(=O)(Nc1ccc(-n2c(C(F)(F)F)nc3ccccc32)cc1)c1cccc(F)c1F` [Compound 52, 2,3-Difluoro-N-[4-(trifluoromethyl-benzoimidazol-1-yl)-phenyl]-benzenesulfonamide] gave an IC50 greater than 1000 nM. Work on `CC(=O)Nc1cc(NC(=O)c2cccc(F)c2F)ccc1-n1c(C(F)(F)F)nc2ccccc21` [Compound 53, 2,3-Difluoro-N-[3-acetylamino-4-(2-trifluoromethyl-benzoimidazol-1-yl)-phenyl]-benzamide] yielded an IC50 greater than 1000 nM. `O=C(Nc1ccc(-n2cnc3ccccc32)cc1)c1cccc(F)c1F` [Compound 54, 2,3-Difluoro-N-[4-(benzoimidazol-1-yl)-phenyl]-benzamide] showed an IC50 greater than 1000 nM. `Cc1cc(-n2c(C(F)(F)F)nc3ccccc32)ccc1NC(=O)c1cccc(F)c1F` [Compound 55, 2,3-Difluoro-N-[2-methyl-4-(2-trifluoromethyl-benzoimidazol-1-yl)-phenyl]-benzamide] gave an IC50 greater than 1000 nM. For `O=C(Nc1ccc(-n2c(C(F)(F)F)nc3cc(N4C(=O)c5ccccc5C4=O)ccc32)cc1)c1cccc(F)c1F` [Compound 57, 2,3-Difluoro-N-{4-[2-trifluoromethyl-5-(1,3-dioxo-isoindol-2-yl)-benzoimidazol-1-yl]-phenyl}-benzamide], the IC50 was greater than 1000 nM. Molecule `Cc1nnsc1C(=O)Nc1ccc(-n2c(C(F)(F)F)nc3cccnc32)cc1` [Compound 58, 4-Methyl-[1,2,3]thiadiazole-5-carboxylic acid {N-[4-(2-trifluoromethyl-imidazo[4,5-b]pyrid-3-yl)-phenyl]} amide] has an IC50 greater than 1000 nM. In the case of `O=C(Nc1ccc(-n2c(C(F)(F)F)nc3cc(O)c(O)cc32)cc1)c1cccc(F)c1F` [Compound 60, 2,3-Difluoro-N-[4-(2-trifluoromethyl-5,6-dihydroxy-benzoimidazol-1-yl)-phenyl]-benzamide], the IC50 was greater than 1000 nM. In the case of `O=C(Nc1ccc(-n2c(C(F)(F)F)nc3cnccc32)cc1)c1cccc(F)c1F` [Compound 61, 2,3-Difluoro-N-[4-(2-trifluoromethyl-imidazo[4,5-c]pyrid-1-yl)-phenyl]-benzamide], the IC50 was greater than 1000 nM. In the case of `Cc1nnsc1C(=O)Nc1ccc(-n2c(C(F)(F)F)nc3ccccc32)nc1` [Compound 62, 4-Methyl-[1,2,3]thiadiazole-5-carboxylic acid {N-[2-(2-trifluoromethyl-benzoimidazol-1-yl)-pyrid-5-yl]} amide], the IC50 was greater than 1000 nM. `CC(C)(C)c1cnc(-c2ccc3c(c2)nc(C(F)(F)F)n3-c2ccc(NC(=O)c3cc(F)ccc3F)cc2)o1` [Compound 67, 2,5-Difluoro-N-{4-[2-trifluoromethyl-5-(5-tert-butyl-oxazol-2-yl)-benzoimidazol-1-yl]-phenyl}-benzamide] was tested, and the IC50 was greater than 1000 nM. With `CC(C)(C)c1cnc(-c2ccc3c(c2)nc(C(F)(F)F)n3-c2ccc(NC(=O)c3cccc(F)c3F)cc2)o1` [Compound 68, 2,3-Difluoro-N-{4-[2-trifluoromethyl-5-(5-tert-butyl-oxazol-2-yl)-benzoimidazol-1-yl]-phenyl}-benzamide] the IC50 was greater than 1000 nM.
